We go through 17 compounds from US5004746A, “Anti-retroviral castanospermine esters” (Merrell Dow Pharmaceuticals Inc., priority 1987, dated 1991).

In brackets after ≈: the same amount, converted by molar mass. Read-outs that look alike come from different tables or passages of the source.

The test system of experiment [1] is viral protein glycosylation. Particulars: cited from earlier work.
In the next experiment the test system is influenza infected cells. Particulars: cited from earlier work.
Another experiment relates to HIV. Particulars: Blough et al. 1986; cited from earlier work.
In another experiment the test system is HIV glycoproteins. Particulars: Blough et al. 1986; cited from earlier work.
A further experiment concerns HIV-infected cells. As to conditions: Blough et al. 1986; cited from earlier work.
In experiment [2] the test system is Moloney murine leukemia virus (MoLV). Nature of the experiment: in vitro XC plaque assay (inhibition of growth and replication of murine leukemia virus). As to conditions: SC1, MoLV on mouse SC-1 cells, rat XC cells, compound added 2 hours prior to virus, read-out: IC50 (inhibitory concentration). Format: cell-based. On the procedure:
This assay was performed according to the method of Rowe et al. (Virology, 1970, 42, 1136-39) as previously described by L. Hsu, et al. (J. Viroloqical Methods, 1980, 1, 167-77) and T. L. Bowlin and M. R. Proffitt (J. Interferon Res., 1983, 3(1), 19-31). Mouse SC-1 cells (fibroblast) (10^5) were seeded into each well of 6-well cluster plates (Costar #3506) in 4 ml Minimum Essential Medium (MEM) with 10% Fetal Calf Serum (FCS). Following an 18 hour incubation period (37° C.), Moloney murine leukemia virus (MoLV) was applied at a predetermined titer to give optimal (i.e. countable) numbers of virus plaques. Compounds were added 2 hours prior to addition of the virus. Three days later the culture medium was removed, the SC-1 cell monolayers were exposed to UV irradiation (1800 ergs), and rat XC cells […] were seeded into each well in 4 ml MEM. Following an additional 3 day incubation (37° C.), these cells were fixed with ethyl alcohol (95%) and stained with 0.3% crystal violet. Plaques were then counted under low magnification.

On to `OC[C@H]1OC(O)[C@@H](F)[C@@H](O)[C@@H]1O` (stereo partly drawn) [2-deoxy-2-fluoro-D-mannose], for which the “inhibition of viral protein glycosylation” value in experiment [1] is reported as “preventing the glycosylation of viral membrane protein”. In addition, the “antiviral activity against influenza infected cells” value in the experiment on influenza infected cells is given as “exhibit antiviral activity against influenza infected cells”.

With `OC[C@H]1OC(O)[C@H](F)[C@@H](O)[C@@H]1O` (some centres unmarked) [2-deoxy-2-fluoroglucose], the “inhibition of viral protein glycosylation” value in experiment [1] is “inhibit viral protein glycosylation”. For the compound `O=CC[C@@H](O)[C@H](O)[C@H](O)CO` [2-deoxy-D-glucose], in experiment [1] (McDowell et al. 1985), the “inhibition of viral protein glycosylation” value is listed as “inhibit viral protein glycosylation”. The “block of formation of syncytia” value in the experiment with HIV was “block the formation of syncytia”. The “inhibition of expression of HIV glycoproteins” value in the experiment on HIV glycoproteins is given as “inhibit expression of HIV glycoproteins”. In the experiment on HIV-infected cells, the “viral multiplication of HIV-infected cells” value is given as “stopped”.

Turning to `O=C(O[C@H]1CN2CC[C@H](O)[C@@H]2[C@@H](O)[C@@H]1O)c1ccco1` [R = 2-Furanoyl, R1 = H, R2 = H, 6-(2-Furancarboxylate)], the IC50 in experiment [2] was found to be 1 µg/mL (≈ 3.53 µM). Regarding `CC(=O)O[C@H]1CN2CC[C@H](O)[C@@H]2[C@@H](O)[C@@H]1O` [R = Ac, R1 = H, R2 = H, [1S-(1α,6β,7α,8β,8aβ)]-octahydro-1,6,7,8-indolizinetetrol 6-acetate], the IC50 in experiment [2] was found to be 10 µg/mL (≈ 43.2 µM). `CCCC(=O)O[C@H]1[C@H](O)[C@@H](OC(=O)CCC)CN2CC[C@H](O)[C@H]12` [R = Butanoyl, R1 = H, R2 = Butanoyl, [1S-(1α,6β,7α,8β,8aβ)]-octahydro-1,6,7,8-indolizinetetrol 6,8-dibutanoate]: the IC50 in experiment [2] stood at 0.5 µg/mL (≈ 1.52 µM). As to `CCCC(=O)O[C@H]1CN2CC[C@H](O)[C@@H]2[C@@H](O)[C@@H]1O` [R = Butanoyl, R1 = H, R2 = H, [1S(1α,6β,7α,8β,8aβ)]-octahydro-1,6,7,8indolizinetrol 6-butanoate], the IC50 in experiment [2] is 0.1 µg/mL (≈ 0.386 µM).

Turning to `O=C(O[C@H]1[C@H](O)[C@H]2[C@@H](O)CCN2C[C@@H]1OC(=O)c1ccccc1)c1ccccc1` [R = Bz, R1 = Bz, R2 = H, [1S-(1α,6β,7α,8β,8aβ)]-octahydro-1,6,7,8-indolizinetetrol 6,7-dibenzoate], the IC50 in experiment [2] is 10 µg/mL (≈ 25.2 µM).

For the compound `O=C(O[C@H]1CN2CC[C@H](O)[C@@H]2[C@@H](O)[C@@H]1O)c1ccccc1` [R = Bz, R1 = H, R2 = H, [1S-(1α,6β,7α,8β,8aβ)]octahydro-1,6,7,8-indolizinetetrol 6-benzoate], the IC50 in experiment [2] is 0.1 µg/mL (≈ 0.341 µM). As for `O=C(O[C@H]1[C@H](O)[C@H]2[C@@H](O)CCN2C[C@@H]1O)c1ccc(Cl)cc1Cl` [R = H, R1 = 2,4-Cl2 -Bz, R2 = H, [1S-(1α,6β,7α,8β,8aβ)]-octahydro-1,6,7,8-indolizinetetrol 7-(2,4-dichlorobenzoate)], the IC50 in experiment [2] came to 1 µg/mL (≈ 2.76 µM). As to `O=C(O[C@H]1[C@H](O)[C@H]2[C@@H](O)CCN2C[C@@H]1O)c1ccccc1` [R = H, R1 = Bz, R2 = H, [1S-(1α,6β,7α,8β,8aβ)]-octahydro 1,6,7,8-indolizinetetrol 7-benzoate], in experiment [2], the IC50 came to 1 µg/mL (≈ 3.41 µM). On to `Cc1ccc(C(=O)O[C@H]2[C@H](O)[C@H]3[C@@H](O)CCN3C[C@@H]2O)cc1` [R = H, R1 = p-CH3 Bz, R2 = H, [1S-(1α,6β,7α,8β,8aβ)]-octahydro-1,6,7,8-indolizinetetrol 7-(4-methylbenzoate)], for which, in experiment [2], the IC50 was 1 µg/mL (≈ 3.25 µM). Same read-out and setting: with `Cc1ccc(C(=O)O[C@H]2CN3CC[C@H](O)[C@@H]3[C@@H](O)[C@@H]2O)cc1` [R = p-CH3 -Bz, R1 = H, R2 = H, [1S-(1α,6β,7α,8β,8aβ)]-octahydro-1,6,7,8-indolizinetetrol 6-(4-methylbenzoate)] the figure was 1 µg/mL (≈ 3.25 µM); with `COc1ccc(C(=O)O[C@H]2CN3CC[C@H](O)[C@@H]3[C@@H](O)[C@@H]2O)cc1` [R = p-CH3 O-Bz, R1 = H, R2 = H, [1S-(1α,6β,7α,8β,8aβ)]-octahydro-1,6,7,8-indolizinetetrol 6-(4-methoxybenzoate)], 10 µg/mL (≈ 30.9 µM); with `O=C(O[C@H]1CN2CC[C@H](O)[C@@H]2[C@@H](O)[C@@H]1O)c1ccc(F)cc1` [R = p-F-Bz, R1 = H, R2 = H, [1S-(1α,6β,7α,8β,8aβ)]-octahydro-1,6,7,8-indolizinetetrol 6-(4-fluorobenzoate)], 10 µg/mL (≈ 32.1 µM). On the same count and under the same terms, for `O=C(O[C@H]1[C@H](O)[C@H]2[C@@H](O)CCN2C[C@@H]1OC(=O)c1ccc(F)cc1)c1ccc(F)cc1` [R = p-F-Bz, R1 = p-F-Bz, R2 = H, [1S-(1α,6β,7α,8β,8aβ)]-octahydro-1,6,7,8-indolizinetetrol 6,7-bis(4-fluorobenzoate)] the value was 10 µg/mL (≈ 23.1 µM). As for `CCC(O)[C@H](N)C(=O)O` (stereo partly drawn) [β-hydroxy-norvaline], in the experiment with HIV, the “block of formation of syncytia” value was “block the formation of syncytia”. Further, in the experiment on HIV glycoproteins, the “inhibition of expression of HIV glycoproteins” value was “inhibit expression of HIV glycoproteins”. The “viral multiplication of HIV-infected cells” value with HIV-infected cells is “stopped”.
